Literature values as cited in patent publication US20190216738A1, “PIRFENIDONE-CONTAINING TABLET AND CAPSULE FORMULATION” (Laurus Labs Ltd, priority 2018, published 2019).

solubility (1.0 N HCl, water and 1.0 N NaOH): sparingly soluble
dissolution in water (solubility) (water, 25° C., pH independent): 19 mg/mL
Structure (SMILES): Cc1ccc(=O)n(-c2ccccc2)c1 [Pirfenidone]
